# Test results: ChEMBL document CHEMBL1795225, “Flavonoids as inhibitors of human CD38” (Bioorg Med Chem Lett, 2011)
# Target: T1, ADP-ribosyl cyclase/cyclic ADP-ribose hydrolase 1 (Homo sapiens, UniProt P28907)
# T1 sequence (P28907 whole entry): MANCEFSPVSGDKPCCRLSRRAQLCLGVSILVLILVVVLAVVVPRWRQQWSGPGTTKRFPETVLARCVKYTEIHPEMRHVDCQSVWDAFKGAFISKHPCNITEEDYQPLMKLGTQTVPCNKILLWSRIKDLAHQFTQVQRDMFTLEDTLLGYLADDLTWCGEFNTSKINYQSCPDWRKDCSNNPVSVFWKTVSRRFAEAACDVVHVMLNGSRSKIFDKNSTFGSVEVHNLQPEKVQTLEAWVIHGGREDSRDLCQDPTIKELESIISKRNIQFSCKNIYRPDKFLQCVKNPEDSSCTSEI
# Assay: Inhibition of human CD38 using 20 uM 1, N6-etheno NAD+ as substrate by continuous fluorimetric method
row,Structure (SMILES),IC50 [µM]
1,Oc1ccc(-c2[o+]c3cc(O)c(O)c(O)c3cc2O)cc1O,14.2
2,Oc1cc(O)c2c(c1)OC(c1ccc(O)c(O)c1)C(O)C2 (racemic) [CATECHIN],> 100
3,Oc1cc(O)c2cc(O)c(-c3ccc(O)c(O)c3)[o+]c2c1 [CYANIDIN],21.8
4,Oc1cc(O)c2cc(O)c(-c3cc(O)c(O)c(O)c3)[o+]c2c1 [DELPHINIDIN],14.6
5,COc1ccc(-c2ccc3c(O)cc(O)cc3[o+]2)cc1O [DIOSMETINIDIN],32.1
6,Oc1ccc2cc(O)c(-c3ccc(O)c(O)c3)[o+]c2c1 [FISETINIDIN],70.3
7,OC[C@H]1O[C@@H](Oc2cc3c(O)cc(O)cc3[o+]c2-c2ccc(O)c(O)c2)[C@H](O)[C@@H](O)[C@@H]1O [KUROMANIN],6.3
8,Oc1cc(O)c2ccc(-c3ccc(O)c(O)c3)[o+]c2c1 [LUTEOLINIDIN],6
9,O=c1cc(-c2ccc(O)c(O)c2)oc2cc(O)cc(O)c12 [LUTEOLIN],8.2
10,COc1cc(-c2[o+]c3cc(O)cc(O)c3cc2O)cc(OC)c1O [MALVIDIN],17
11,O=c1c(O)c(-c2cc(O)c(O)c(O)c2)oc2cc(O)cc(O)c12 [MYRICETIN],24.8
12,O=c1c(O)c(-c2ccc(O)c(O)c2)oc2cc(O)cc(O)c12 [QUERCETIN],37.9

# The remaining lines, values ahead:
row,IC50 [µM],Structure (SMILES)
1,16.3,Oc1ccc(-c2[o+]c3cc(O)cc(O)c3cc2O)cc1 [PELARGONIDIN]
2,39.2,COc1cc(-c2[o+]c3cc(O)cc(O)c3cc2O)cc(O)c1O [PETUNIDIN]
3,> 100,Oc1cc(O)cc(/C=C/c2ccc(O)c(O)c2)c1 [PICEATANNOL]
4,48.6,O=c1c(O)c(-c2ccc(O)c(O)c2)oc2cc(O)c(O)c(O)c12 [QUERCETAGETIN]
5,> 100,Oc1ccc(/C=C/c2cc(O)cc(O)c2)cc1 [RESVERATROL]
6,37.9,O=c1c(O)c(-c2cc(O)c(O)c(O)c2)oc2cc(O)ccc12 [ROBINETIN]
